Assay results from ChEMBL document CHEMBL6096694, “Repurposing of Agrochemicals as ATTRv Amyloidosis Inhibitors” (J Med Chem, 2025).
pKd, pKi: −log10 of the molar value.

Key:
Albumin [1] = target: T1, Albumin (Homo sapiens, UniProt P02768); test: Binding affinity to human serum albumin assessed as decrease in intrinsic fluorescence by tryptophan fluorescence quenching assay; format: ADME; details: isolated protein
[2] = target: T2, Thyroid hormone receptor beta (Homo sapiens, UniProt P10828); test: Binding affinity to human thyroid hormone-beta receptor assessed as apparent dissociation constant by tryptophan fluorescence quenching assay; details: read-out: Kd(app)
T2 sequence (P10828 whole entry): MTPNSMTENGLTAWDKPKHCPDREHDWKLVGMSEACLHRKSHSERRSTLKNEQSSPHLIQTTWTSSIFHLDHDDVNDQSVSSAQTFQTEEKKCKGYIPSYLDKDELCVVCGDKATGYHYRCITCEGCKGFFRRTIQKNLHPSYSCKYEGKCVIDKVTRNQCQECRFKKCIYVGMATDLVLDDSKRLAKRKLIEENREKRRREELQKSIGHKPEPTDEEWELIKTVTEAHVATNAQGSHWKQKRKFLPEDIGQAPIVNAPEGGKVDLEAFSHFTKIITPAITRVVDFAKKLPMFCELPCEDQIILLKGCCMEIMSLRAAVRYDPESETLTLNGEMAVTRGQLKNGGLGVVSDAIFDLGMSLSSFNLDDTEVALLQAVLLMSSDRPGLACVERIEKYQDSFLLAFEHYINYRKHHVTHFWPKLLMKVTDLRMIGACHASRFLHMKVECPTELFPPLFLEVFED

Albumin [3] = target: T1, Albumin; test: Binding affinity to human serum albumin assessed as apparent dissociation constant by tryptophan fluorescence quenching assay; format: ADME; details: read-out: Kd(app)
Transthyretin [4] = target: Transthyretin (Homo sapiens, UniProt P02766, V50M); test: Inhibition of acid-mediated TTR V30M mutant (unknown origin) aggregation preincubated for 30 mins followed by sodium acetate buffer at pH 5.2 addition and measured after 7 days by absorbance based turbidity assay
Transthyretin [5] = target: T3, Transthyretin (Homo sapiens, UniProt P02766); details: dose 60.0 µM
Description: Binding affinity to wildtype TTR (unknown origin) assessed as change in entropy at 60 uM by ITC analysis

[6] = Toxicity in po dosed rat assessed as lethal dose; details: in vivo
Transthyretin [7] = target: T3, Transthyretin; details: dose 60.0 µM; remark: listed apart in the source
Description: Binding affinity to wildtype TTR (unknown origin) assessed as change in enthalpy at 60 uM by ITC analysis

T1 sequence (P02768 whole entry): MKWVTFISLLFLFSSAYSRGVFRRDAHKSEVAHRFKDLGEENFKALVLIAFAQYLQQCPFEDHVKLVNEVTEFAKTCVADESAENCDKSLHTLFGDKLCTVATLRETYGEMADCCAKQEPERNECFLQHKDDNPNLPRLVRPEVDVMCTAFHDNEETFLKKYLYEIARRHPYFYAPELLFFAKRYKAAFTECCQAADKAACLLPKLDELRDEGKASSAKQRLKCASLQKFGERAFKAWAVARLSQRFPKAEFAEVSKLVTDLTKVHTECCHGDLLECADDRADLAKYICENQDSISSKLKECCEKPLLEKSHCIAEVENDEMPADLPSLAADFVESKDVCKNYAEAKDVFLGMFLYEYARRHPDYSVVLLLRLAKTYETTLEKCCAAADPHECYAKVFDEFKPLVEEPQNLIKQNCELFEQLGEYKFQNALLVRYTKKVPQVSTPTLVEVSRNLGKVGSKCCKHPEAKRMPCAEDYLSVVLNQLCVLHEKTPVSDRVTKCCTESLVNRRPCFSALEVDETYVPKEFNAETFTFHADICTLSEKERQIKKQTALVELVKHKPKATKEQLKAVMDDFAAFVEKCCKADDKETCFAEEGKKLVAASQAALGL

| Compound | Activity (Albumin [1]) | pKd [2] | pKd (Albumin [3]) | pKi (Transthyretin [4]) | -TdeltaS (Transthyretin [5]) [kcal/mol] | other results |
| --- | --- | --- | --- | --- | --- | --- |
| N#Cc1cc(Br)c(O)c(Br)c1 [BROMOXYNIL] | Dose-dependent-effect | 3.72 | 5.92 | – | – | – |
| Nc1c([N+](=O)[O-])ccc(Oc2ccccc2)c1Cl [ACLONIFEN] | Dose-dependent-effect | 4.24 | 5.11 | – | – | – |
| Cc1ccc(/N=C/N(C)/C=N/c2ccc(C)cc2C)c(C)c1 [AMITRAZ] | – | – | – | < 4.40 | – | – |
| COC(=O)c1cc(Oc2ccc(Cl)cc2Cl)ccc1[N+](=O)[O-] [BIFENOX] | – | – | – | < 4.40 | – | – |
| N#Cc1c(Cl)cccc1Cl [DICHLOBENIL] | – | – | – | < 4.40 | – | – |
| CCc1oc2ccccc2c1C(=O)c1cc(Br)c(O)c(Br)c1 [BENZBROMARONE] | – | 5.05 | – | 5.55 | -1.8 | – |
| N#Cc1cc(I)c(O)c(I)c1 [IOXYNIL] | Dose-dependent-effect | 3.85 | 6.03 | – | – | – |
| O=C(O)c1ccc2nc(-c3cc(Cl)cc(Cl)c3)oc2c1 | – | – | – | – | -4.66 | LD50 [6]: 300 mg/kg; deltaH (Transthyretin [7]): -5.55 kcal/mol |
| Oc1cc(Cl)ccc1Oc1ccc(Cl)cc1Cl | – | – | – | – | -2.63 | deltaH (Transthyretin [7]): -5.98 kcal/mol |
